Source: US20120028985A1, “COMBINATIONAL THERAPY FOR TREATING AUTOIMMUNE DISEASE” (4SC AG, priority 2008, published 2012)
Values joined by “and” are separate entries in the source; they are usually repeats but may differ in a detail not shown here. Equal entries are not always repeated.

What was measured:
DBA1/J mice = assay: Collagen Induced Arthritis in Mice, Arthritic Index (AI); assay type: in vivo; details: po once daily, MTX 2.5 mg/kg, Formula (II) 50 mg/kg; for Average Arthritic Index, Mean: group mean
Procedure: Collagen Induced Arthritis in Mice
Bovine Type II collagen solution is prepared by dissolving at 4 mg/ml in 0.01 M acetic acid at 4-8° C. with stirring overnight. Immunogen is prepared by emulsifying a 1:1 vol:vol combination of collagen solution and Complete Freund's Adjuvant (CFA) (M. tuberculosis H37Ra suspension: 4 mg/ml).
DBA1/J mice (male, 7-8 weeks) are weighed. The animals are anesthetized, injected subcutaneously into the shaved base of the tail with collagen/CFA (0.050 ml/mouse; 100 microgram/mouse collagen in CFA) using a 1 ml syringe fitted with a 25 G needle and returned to the cages.
After three weeks (21 d) the procedure is repeated, though now with incomplete Freund's adjuvant (IFA) instead of CFA.
Animals are observed for one week and macroscopic signs of arthritis are scored 3-times weekly (Monday, Wednesday, Friday: M, W, F). Each paw receives a score: • a) 0=no visible effects of arthritis; • b) 1=edema and/or erythema of 1 digit; • c) 2=edema and/or erythema of 2 digits; • d) 3=edema and/or erythema of more than 2 digits; • e) 4=severe arthritis of entire paw and digits.
Calculate Arthritic Index (AI) by addition of individual paw scores and record. (Maximum AI=16)
After one week, mice are allocated to groups (10 mice per group) to give similar mean AI values and similar ranges of individual AI values in each treatment group.
Dosing is started, PO (per oral) once daily for 14 days.
AI scores determined 3× weekly.

Beagle dogs [1] = assay: 13-week repeat dose toxicity in Beagle dogs, combination with methotrexate: clinical biochemistry (ALAT, ASAT); assay type: in vivo; details: for ALAT, change as compared to the control group 1 / ASAT, change as compared to the control group 1: 25 mg Formula (II)/kg/day and/or 10/2.5 mg MTX/kg/week, p.o.
Procedure: For laboratory examinations blood samples were taken from the vena cephalica or vena saphena magna from animals fasted overnight. Serum samples were collected into tubes for biochemical tests. Clinical biochemistry parameters from venous blood were determined at the times listed below:
Prior to study start: all animals of a pool of 52 dogs […]
At the end of the recovery period: all 8 recovery animals included in this study
Clinical biochemistry parameters (e.g. bile acids, alanine aminotransferase=ALAT, alkaline phosphatise=aP, aspartate aminotransferase=ASAT, gamma-glutamyl-transferase=Gamma-GT, glutamate dehydrogenase=GLDH, creatine kinase=CK) were measured using KONELAB 30i instrument (Thermo Fisher Scientific, 63303 Dreieich, Germany) as U/L (unit/liter) serum.

Beagle dogs [2] = details: Beagle dogs, 13 weeks oral
Text: The animals were randomly allocated to five test groups employing a pseudo-random body weight stratification procedure that yielded groups with approximately equal mean body weights. […] A special focus of the study was to study the influence of the combination treatment on liver toxicity.

[3] = Toxicokinetics of formula (II) and methotrexate after individual and concomitant administration to Beagle dogs; assay type: in vivo; details: for AUC(0-inf) / Cmax / half-life: mean
[4] = female, Beagle, dog, plasma, po, 10 mg/kg, Group 4 (+MTX), formula (II) 10 mg/kg, day 1, female Beagle dogs
[5] = female, Beagle, dog, plasma, po, 10 mg/kg, Group 4 (+MTX), formula (II) 10 mg/kg, week 13, female Beagle dogs
[6] = female, Beagle, dog, plasma, po, 25 mg/kg, Group 2, formula (II) 25 mg/kg alone, day 1, female Beagle dogs
[7] = female, Beagle, dog, plasma, po, 25 mg/kg, Group 2, formula (II) 25 mg/kg alone, week 13, female Beagle dogs
[8] = female, Beagle, dog, plasma, po, 25 mg/kg, Group 5 (+MTX), formula (II) 25 mg/kg, day 1, female Beagle dogs
[9] = female, Beagle, dog, plasma, po, 25 mg/kg, Group 5 (+MTX), formula (II) 25 mg/kg, week 13, female Beagle dogs
[10] = male, Beagle, dog, plasma, po, 10 mg/kg, Group 4 (+MTX), formula (II) 10 mg/kg, day 1, male Beagle dogs
[11] = male, Beagle, dog, plasma, po, 10 mg/kg, Group 4 (+MTX), formula (II) 10 mg/kg, week 13, male Beagle dogs
[12] = male, Beagle, dog, plasma, po, 25 mg/kg, Group 2, formula (II) 25 mg/kg alone, day 1, male Beagle dogs
[13] = male, Beagle, dog, plasma, po, 25 mg/kg, Group 2, formula (II) 25 mg/kg alone, week 13, male Beagle dogs
[14] = male, Beagle, dog, plasma, po, 25 mg/kg, Group 5 (+MTX), formula (II) 25 mg/kg, day 1, male Beagle dogs
[15] = male, Beagle, dog, plasma, po, 25 mg/kg, Group 5 (+MTX), formula (II) 25 mg/kg, week 13, male Beagle dogs

## COc1cccc(-c2ccc(NC(=O)C3=C(C(=O)O)CCC3)c(F)c2)c1 [Formula (II)]
DBA1/J mice; study day 22
  Average Arthritic Index, Mean: 0
  Arthritic Index (individual mouse): 0
DBA1/J mice; study day 23
  Average Arthritic Index, Mean: 0
  Arthritic Index (individual mouse): 0
DBA1/J mice; study day 24
  Average Arthritic Index, Mean: 0
  Arthritic Index (individual mouse): 0
DBA1/J mice; study day 25
  Average Arthritic Index, Mean: 0
  Arthritic Index (individual mouse): 0
DBA1/J mice; study day 26
  Average Arthritic Index, Mean: 0
  Arthritic Index (individual mouse): 0
DBA1/J mice; study day 27
  Average Arthritic Index, Mean: 0
  Arthritic Index (individual mouse): 0
DBA1/J mice; study day 28
  Average Arthritic Index, Mean: 0.7
  Arthritic Index (individual mouse): 1 (3×) and 0 (4×) and 2
DBA1/J mice; study day 30
  Average Arthritic Index, Mean: 0.9
  Arthritic Index (individual mouse): 1 (4×) and 0 (3×) and 2 and 3
DBA1/J mice; study day 31
  Average Arthritic Index, Mean: 2.2
  Arthritic Index (individual mouse): 2 (2×) and 3 (3×) and 1 (3×) and 4
DBA1/J mice; study day 32
  Average Arthritic Index, Mean: 3.6
DBA1/J mice; study day 33
  Average Arthritic Index, Mean: 5.2
  Arthritic Index (individual mouse): 6 (2×) and 11 and 2 (2×) and 5 (3×) and 8
DBA1/J mice; study day 35
  Average Arthritic Index, Mean: 5.9
  Arthritic Index (individual mouse): 5 (2×) and 12 and 4 (3×) and 3 and 8
DBA1/J mice; study day 37
  Average Arthritic Index, Mean: 6.9
DBA1/J mice; study day 40
  Average Arthritic Index, Mean: 6.9
DBA1/J mice; study day 42
  Average Arthritic Index, Mean: 7.0
DBA1/J mice; study day 44
  Average Arthritic Index, Mean: 7.1
DBA1/J mice; study day 47
  Average Arthritic Index, Mean: 7.6
Beagle dogs [1]; Beagle dogs, 13 weeks oral, serum
  Changes in the biochemical parameters: slight increased enzyme activities of ALAT, ASAT and GLDH as well as slight increases of the bile acid concentration in serum
Beagle dogs [1]; Test day 37, females
  ALAT, change as compared to the control group 1: None
  ASAT, change as compared to the control group 1: None
Beagle dogs [1]; Test day 37, males
  ALAT, change as compared to the control group 1: none
  ASAT, change as compared to the control group 1: none
Beagle dogs [1]; Test day 93, females
  ALAT, change as compared to the control group 1: None
  ASAT, change as compared to the control group 1: None
Beagle dogs [1]; Test day 93, males
  ALAT, change as compared to the control group 1: None
  ASAT, change as compared to the control group 1: None
Beagle dogs [2]
  Influence on body weight, food and drinking water consumption and haematological parameters: no influence
[3]; Beagle dogs, test day 1 and 85
  Toxicokinetic findings (plasma levels, interaction): clear dose response relationship
[3]; female, Beagle, dog, plasma, po, 10 mg/kg
  AUC(0-t): 598 µg·h/mL
[3]; [4]
  AUC(0-inf): 513 µg·h/mL
  Cmax: 43000 ng/mL
  half-life: 444 min
[3]; [5]
  Cmax: 40500 ng/mL
  half-life: 1600 min
[3]; [6]
  AUC(0-inf): 773 µg·h/mL
  Cmax: 56300 ng/mL
  half-life: 516 min
[3]; [7]
  AUC(0-inf): 1010 µg·h/mL
  Cmax: 66600 ng/mL
  half-life: 666 min
[3]; [8]
  AUC(0-inf): 413 µg·h/mL
  Cmax: 33100 ng/mL
  half-life: 456 min
[3]; [9]
  AUC(0-inf): 1190 µg·h/mL
  Cmax: 76300 ng/mL
  half-life: 486 min
[3]; [10]
  AUC(0-inf): 322 µg·h/mL
  Cmax: 30300 ng/mL
  half-life: 378 min
[3]; [11]
  AUC(0-inf): 371 µg·h/mL
  Cmax: 35700 ng/mL
  half-life: 378 min
[3]; [12]
  AUC(0-inf): 289 µg·h/mL
  Cmax: 22700 ng/mL
  half-life: 468 min
[3]; [13]
  AUC(0-inf): 601 µg·h/mL
  Cmax: 56900 ng/mL
  half-life: 366 min
[3]; [14]
  AUC(0-inf): 858 µg·h/mL
  Cmax: 60000 ng/mL
  half-life: 504 min
[3]; [15]
  AUC(0-inf): 659 µg·h/mL
  Cmax: 53600 ng/mL
  half-life: 474 min
